Source: US6518300B2, “Treatment of lipid metabolic disorders using 5-(1,2-dithiolan-3-yl) valeric acid (α-lipoic acid) or its physiologically compatible salts” (BiRD Berolina innovative Research and Development GmbH, priority 1998, dated 2003)

Assays:
[1] = same observational study; patients assigned to three groups by disease pattern (DGFF guidelines); assay type: in vivo
Protocol: A somewhat smaller group was treated with α-lipoic acid, but not with captopril (n=280). The treatment time extended over approximately 3 months. α-Lipoic acid was predominantly administered orally or parenterally in a dose of 600 mg per day. Captopril was ingested orally in daily doses of 12.5 to 50 mg.
In another consideration, the patients were assigned to three groups on the basis of their disease pattern, independent of the form of therapy, according to the “Guidelines of the German Association for Combatting Disorders of Lipid Metabolism and Their Sequelae DGFF (Lipid-Liga) e.V.” (Supplement to the German Ärzteblatte 1996; 4, 1-8):
1) isolated LDL-hypercholesterolemia (LDL>4.14, triglycerides≦2.2 mmoles/l);
2) combined LDL-hypercholesterolemia (LDL>4.14, triglycerides>2.2 mmoles/l);
3) isolated hypertriglyceridemia (LDL≦4.14, triglycerides>2.2 mmoles/l).
Standard values from the literature were set as limiting values (Wilson et al., Harrison's Principles of Internal Medicine, 12Edition, McGraw-Hill, 1991).
Sixty-two patients were placed in the first group, 112 patients in the second group, and 83 patients in the third group.

[2] = open observational study of blood lipid values under α-lipoic acid therapy; total population and individual-parameter analysis; assay type: in vivo, patients
Protocol: A somewhat smaller group was treated with α-lipoic acid, but not with captopril (n=280). The treatment time extended over approximately 3 months. α-Lipoic acid was predominantly administered orally or parenterally in a dose of 600 mg per day. Captopril was ingested orally in daily doses of 12.5 to 50 mg. At the beginning of therapy and at the end of observation after three months, the blood lipid values were optionally recorded. […] Because of the different basic treatment, the patients with combined therapy of α-lipoic acid and captopril and those with a single therapy with α-lipoic acid were placed in subgroups for this purpose: the 160 remaining patients (those with single therapy with captopril, n=154; those without treatment data n=6) were not included in the further analysis, since in this remaining group, only a small, incomparable number of patients had initial values corresponding to the range named under point 2 (triglycerides n=0, total cholesterol n=63, HDL cholesterol n=0, LDL cholesterol n=32). In a first analysis, the parameters were represented independently of one another, i.e., all patients, who had the initial values given below for the parameter, were included for each parameter: triglycerides >6 mmoles/l; total cholesterol >6 mmoles/l HDL cholesterol 0.7-0.8 mmole/l; LDL cholesterol >2.5 mmoles/l. The limits of the range were selected based on the studies reported in the literature (H. Thuro, Effective decrease in cholesterol and triglycerides with atorvastatin, Supplement in Der Internist 1996; 37 (8), 1-8).

[3] = doses of approximately 600 mg/day; treatment of polyneuropathy; cited from earlier work
[4] = group 2 combined LDL-hypercholesterolemia
[5] = group 2 combined LDL-hypercholesterolemia, 91 paired values, p<0.0001
[6] = total population, start vs end of observation after three months, predominantly 600 mg per day

With `O=C(O)CCCCC1CCSS1` (stereo not drawn) [α-lipoic acid, 5-(1,2-dithiolan-3-yl) valeric acid] the “HDL cholesterol, percent increase” value ([1]; group 1, 34 paired values, not significant) was “approximately 10%”, the “total cholesterol, percent decrease” value ([1]; group 1 isolated LDL-hypercholesterolemia) was 8% and the “total cholesterol, end value” ([1]; group 1 isolated LDL-hypercholesterolemia, initial 7.01 (n=62), end n=40) was 6.49 mmol/L. The “LDL cholesterol, mean percent decrease” value ([1]; group 1 isolated LDL-hypercholesterolemia, p<0.0001) was 16%, the “HDL cholesterol, end value” ([1]; group 1 isolated LDL-hypercholesterolemia, prior 1.29 (n=61), end n=34) was 1.34 mmol/L and the “triglycerides, average end value” ([1]; group 1 isolated LDL-hypercholesterolemia, prior 1.69, n=38, increase not significant) was 1.70 mmol/L. The “LDL cholesterol, end value” ([1]; group 1 isolated LDL-hypercholesterolemia, prior 5.02, n=33) was 4.33 mmol/L, the “HDL cholesterol, percent increase” value [1, 4] was 4.5% and the “total cholesterol, percent decrease” value [1, 4] was ~10%. For the same compound, the “triglycerides, absolute difference (decrease)” value [1, 5] was 0.83 mmol/L, the “triglycerides, percent decrease” value [1, 5] was 20% and the “LDL cholesterol, mean percent decrease” value ([1]; group 2 combined LDL-hypercholesterolemia, p<0.0001) was 14%. The “HDL cholesterol, end value” ([1]; group 2 combined LDL-hypercholesterolemia, prior 1.15 (n=108), end n=77) was 1.15 mmol/L, the “LDL cholesterol, end value” ([1]; group 2 combined LDL-hypercholesterolemia, prior 5.42, n=74) was 4.75 mmol/L and the “total cholesterol, end value” ([1]; group 2 combined LDL-hypercholesterolemia, prior 7.71 (n=112), end n=94) was 6.86 mmol/L. The “triglycerides, end value” ([1]; group 2 combined LDL-hypercholesterolemia, prior value 3.75, 91 paired values) was 2.74 mmol/L, the “HDL cholesterol, percent increase” value ([1]; group 3, 59 paired values, p<0.01) was “approximately 15%” and the “total cholesterol, percent decrease” value ([1]; group 3 isolated hypertriglyceridemia) was “about 5%”. For the same compound, the “LDL cholesterol, end value” ([1]; group 3 isolated hypertriglyceridemia, initial 3.29, n=59, change not significant) was 3.23 mmol/L, the “total cholesterol, end value” ([1]; group 3 isolated hypertriglyceridemia, initial 6.31 (n=83), end n=67) was 5.88 mmol/L and the “triglycerides, percent reduction” value ([1]; group 3 isolated hypertriglyceridemia, n=67, p<0.0001) was “about 16%”. For the same compound, the “HDL cholesterol, end value” ([1]; group 3 isolated hypertriglyceridemia, prior 1.19 (n=83), end n=59) was 1.31 mmol/L, the “triglycerides, end value” ([1]; group 3 isolated hypertriglyceridemia, prior 3.33 (n=83), n=67, p<0.0001) was 2.69 mmol/L and the “decrease in ratio of LDL to HDL cholesterol” value ([1]; isolated LDL hypercholesterolemia (group 1)) was 16.97%. The “ratio of LDL to HDL cholesterol, end value” ([1]; isolated LDL hypercholesterolemia (group 1), prior value 3.89) was 3.23, the “decrease in ratio of LDL to HDL cholesterol” value ([1]; mixed hyperlipidemia (group 2)) was 12.31% and the “ratio of LDL to HDL cholesterol, end value” ([1]; mixed hyperlipidemia (group 2), prior value 4.71) was 4.13. For the same compound, the “improvement in ratio of LDL to HDL cholesterol” value ([1]; patients without LDL cholesterinolemia (group 3), initial value in normal range) was 10.51%, the “HDL cholesterol, mean end value” ([2]; patients with initial HDL 0.7-0.8 mmole/l, all patients, prior mean 0.76 (n=33), end n=13, increase not significant) was 0.97 mmol/L and the “percent increase of HDL cholesterol, on average” value ([2]; patients with initial HDL 0.7-0.8 mmole/l, not significant) was “over 20%”. The “LDL cholesterol, mean end value” ([2]; patients with initial LDL >2.5 mmoles/l, all patients, prior mean 4.41 (n=336), end n=208, p<0.001) was 4.03 mmol/L, the “percent decrease of LDL cholesterol, on average” value ([2]; patients with initial LDL >2.5 mmoles/l, in all groups) was “approximately 10%” and the “mean percent decrease of total cholesterol” value ([2]; patients with initial total cholesterol >6 mmoles/l, in all groups) was “approximately 10%”. The “total cholesterol, mean end value” ([2]; patients with initial total cholesterol >6 mmoles/l, prior mean 7.32 (n=853), 570 paired values, p<0.0001) was 6.57 mmol/L, the “triglycerides, mean end value” ([2]; patients with initial triglycerides >6 mmoles/l, all patients, prior mean 8.96 (n=33), end n=26, p<0.05, approx. 3 months) was 7.16 mmol/L and the “mean percentual decrease of triglycerides” value ([2]; patients with initial triglycerides >6 mmoles/l, in all groups (total, combined with captopril, single therapy)) was “greater than 20%”. The “observed changes of all lipid parameters, single therapy compared with combined therapy with captopril” value ([2]; single therapy of α-lipoic acid vs combined therapy with captopril) was “more strongly pronounced”, the “change of HDL cholesterol” value [2, 6] was “slight increase” and the “change of LDL cholesterol” value [2, 6] was “statistically striking decrease”. For the same compound, the “change of total cholesterol” value [2, 6] was “statistically striking decrease”, the change of triglycerides ([2]; total population, start vs end of observation after three months, predominantly 600 mg per day oral or parenteral) was “statistically striking decrease” and the “compatibility of oral and parenteral therapy” value [3] was “very good”.
